# Assays:
# [1] = system: ZAP70; experiment: TCR signaling, pZAP70 western blot in CD3/CD28 activated T-cells; assay type: cell-based, human; details: CD3/CD28 bead activation 0-4 h, pZAP70 normalized to ZAP70
# Experimental: Purified T-cells were plated in 6-well plates (2.5×10^6 cells/well, 2.5 mL T-cell medium) and were activated with CD3/CD28 beads (20 μL beads/well, Miltenyi Biotec, San Diego, Calif.) at 37 ° C. for 0-4 h. At the indicated time, samples were then harvested, washed in PBS, lysed with RIPA buffer (Thermo Scientific, containing DNAse and protease/phosphatase inhibitors), and snap frozen on dry ice followed by storage at −80 ° C. Cell lysates (˜3 μg/sample determined by BCA assay) were run on SDS-PAGE and examined by western blot on nitrocellulose membranes with anti-pZAP70 antibody (Cell Signaling Technologies). Briefly, blots were blocked for 1 h at room temperature in 5% milk in TBST (TBST from Cell Signling Technologies), rinsed with TBST and then incubated with primary antibody (anti-pZAP70 1:1000 in 5% BSA in TBST) at 4 ° C. overnight. Blots were washed 3× with TBST and probed with HRP-conjugated secondary antibodies for 1 hr at RT (1:2000 in 5% non-fat milk in TBST) followed by washing (3×TBST) and detection using Cell Signaling Elite ECL as per manufacturer instructions. Blots were scanned using an Amersham™ 600 imager (GE Healthcare). Once imaged, blots could be stripped and reprobed for additional markers using other primary antibodies. […]
# [2] = system: CMV reactive human PMBCs; experiment: In vitro 2FF and anti-PD1 antibody combination in human PBMCs (IFNγ, IL12p70); details: T-cells matured with 100-200 μM 2FF, co-culture with DCs, 5 μg/mL CMV antigen
# Experimental: CMV reactive human PMBCs from a CMV positive donor (Astarte™ Biologics) were thawed, plated into a 6-well plate and cultured overnight in DC media (30% DMEM 70% X-vivo+2 mM glutamax+10% ATB serum+1% PS). The following day the supernatant was collected to isolate T-cells and the adhering cells were washed in media and then replenished with 2 mL media supplemented with IL4 (100 ng/μL) and GMCSF (200 ng/μL) per well to differentiate and proliferate the adhering monocytes into DCs. The plate was incubated for 4-5 days and then cells were moved into a T25 flask. Each time the cells were passaged (every 2-3 days) new cytokines were given. The T-cells in the supernatant were isolated using StemSep human T-cell enrichment kit (Stemcell technologies). The T-cells were then resuspended in T-cell media (RPMI+10% Fetal calf serum, 1% PS) and spilt into two T25 flasks (with or without 100-200 μM 2FF). CD3CD28 antibody coated beads (Miltenyi Biotec) (20 μL/flask) were added to activate the T-cells. After 24 h IL2 was added (100 ng/μL). Each time the cells were passaged new IL2 and 2FF were added. […]
# IFNγ and IL12p70 in the supernatants from 5 day co-cultures were measured using a Lumenix assay and the concentration of each cytokine was calculated using an internal standard curve.
# [3] = system: A20 tumor vaccine model; experiment: Serum cytokines in A20 vaccine model; assay type: in vivo; details: BALB/c mice, with KLH-Idiotype vaccine vs KLH-Idiotype alone, no depletion
# Experimental: KLH-A20 Id Fab was generated as described in Okeley et al PNAS 2012. A20 cells (ATCC) were cultured in RPMI 1640 with 10% FBS, 10 mM HEPES, 1 mM sodium pyruvate, 50 μM 2-mercaptoethanol and penicillin (100 U/ml)/streptomycin (100 μg/ml) (PS) Immunization groups (BALB/c, Harlan) were injected subcutaneously with the KLH-Fab conjugate (50 μg) with TiterMax adjuvant (1:1) on day-21 with a boost on day-7. 2-deoxy-2-fluoro-L-fucose treatment groups received drinking water containing 20 mM 2-deoxy-2-fluoro-L-fucose beginning on day -14. One week after the second vaccination (day 0), all mice received 2.5×10^6 A20 tumor cells (i.v.). 2-deoxy-2-fluoro-L-fucose treatment was continued until day 21 followed by normal drinking water. Depletion of immune cells was accomplished with depleting antibodies administered on days-6, -5, -4, 0 and +7 (200 μg/mouse i.p.). CD4 or CD8 T-cells depletion by anti-CD4 (GK1.5) or -CD8 (53-6.72) antibody was verified in blood at day-1, 7, 14, 21, 29 (FACS analysis). […] Thus CD4 and CD8 T-cells play a role in the combination activity.
# Tissue culture supernatants from T-cell/DC co-cultures described previously were collected and assessed for cytokine changes by Luminex assay. Similarly, blood samples from an A20 vaccine model study were allowed to clot and serum was collected for analysis of cytokines (MCYTOMAG01L1X-13 Mouse Cytokine Magnetic Bead Panel, Millipore).
compound,measurement,setting,value
C[C@@H]1OC(O)[C@@H](F)[C@H](O)[C@@H]1O (stereo partly drawn) [2-deoxy-2-fluoro-L-fucose],Zap70 phosphorylation in treated T-cells compared to naive cells,[1],significantly more phosphorylated and remains phosphorylated for a longer period of time
same,"antigen specific T cell response (IFNγ, IL12p70) of 2FF matured T-cells vs control cell",[2],elevated antigen specific T cell response
same,serum cytokines important for immune responses (IL15) in A20 tumor vaccine model,[3],specific increases in cytokines

# Source: patent US20180353524A1, “CANCER TREATMENT USING 2-DEOXY-2-FLUORO-L-FUCOSE IN COMBINATION WITH A CHECKPOINT INHIBITOR” (SEATTLE GENETICS, INC., priority 2015, published 2018)
